Among the data in PubChem BioAssay AID435029 (Sanford-Burnham Center for Chemical Genomics, 2010) are IC50 values, retold here.

Structures are written as SMILES. The source made the active and inactive calls. The rule behind the calls is not given here.

A word on the IC50: it is the concentration needed to halve the response being measured.

This assay relates to HIV Env-mediated cell-cell fusion, luminescence reporter. Description: blockers of envelope-mediated cell fusion – luminescence reporter, SAR follow-up (AID 435029).
With `Cc1c2c(=O)n(-c3nc4ccccc4s3)nc-2cc(O)n1Cc1ccccc1`, the IC50 was 6.58 µM.

Regarding `COc1cc(C=NNc2ccc(Cl)c(C(=O)O)c2)ccc1OC(=O)c1ccccc1F`, the IC50 is 68 µM.

Turning to `N#C/C(=C\c1ccc(O)c([N+](=O)[O-])c1)c1nc2ccccc2s1`, the IC50 was 4.65 µM. The same measure for `COc1ccc(C(=O)Oc2ccc(C=NNc3ccc(Cl)c(C(=O)O)c3)cc2OC)cc1`: 13 µM. The figure for `O=C(N/N=C/c1c(O)n(C2CCCCC2)c(=S)[nH]c1=O)c1ccccc1O` is 11.5 µM; for `O=C(O)c1ccccc1N=Nc1c(O)[nH]c2ccc([N+](=O)[O-])cc12` it is > 100 µM (inactive); for `CCOC(=O)c1sc(N2C(=O)C(O)=C(C(=O)c3ccc(C)o3)C2c2cccc([N+](=O)[O-])c2)nc1C` (stereo not given) it is 5.1 µM. Regarding `COc1cc(C=NNc2ccc(Cl)c(C(=O)O)c2)ccc1OC(=O)c1ccc(F)cc1`, the IC50 is 30 µM. The figure for `CC(C)(C)c1cc(-c2csc(Nc3ccccc3)[n+]2Cc2ccc(C(=O)O)cc2)cc(C(C)(C)C)c1O` is 3.5 µM; for `O=C(O)c1cc(NN=Cc2ccc(-c3ccccc3)cc2)ccc1Cl` it is 10 µM.
